Measured values taken from patent US20210115104A1, “AMYLIN ANALOGUES” (Zealand Pharma A/S, priority 2015, published 2021).
*1 amine or outer side, *2 acyl side, *3 side chain or, on linkers, in order; H or OH if unused. Where a SMILES comes first, the peptide text is derived from it. Bridges are numbered along the chain shown (N, C = ends). [ ]: non-standard residue; d: D form. The star is where a group is joined. C20 diacid = O=C(O)CCCCCCCCCCCCCCCCCCC(=O)*; γGlu = O=C(O)[C@H](CCC(=O)[*:2])N[*:1]; Hyp = O=C(O)[C@@H]1C[C@@H](O)CN1; NMeI = CC[C@H](C)[C@H](NC)C(=O)O; Sar = CNCC(=O)O

Tests used:
[1] = Assessment of physical stability (Thioflavin T fibrillation); type: physicochemical; parameters: key: FND = fibrillation not detected; FD = fibrillation detected; settings: 1 mg/ml, 40° C., ThT; for Fibrillation pH 4.0 (Ac): 50 mM acetate buffer pH 4.0, 96 hours; for Fibrillation pH 7.0 (His): 50 mM histidine buffer pH 7.0, 96 hours; for Fibrillation pH 7.0 (Phos.): 50 mM phosphate buffer pH 7.0, 96 hours
Method: Solutions containing (i) 1 mg/ml of test peptide, 40 μM ThT and 50 mM phosphate (Ph) buffer (pH 7.0), (ii) 1 mg/ml of test peptide, 40 μM ThT and 50 mM histidine (His) buffer (pH 7.0), and (iii) 1 mg/ml of test peptide, 40 μM ThT and 50 mM acetate (Ac) buffer (pH 4.0), were loaded in a 96-well black fluorescence plate (clear bottom) in triplicate. Data were collected at fixed intervals of 10 min, each preceded by 300 s of automixing (agitation), over a period of 96 hours at 40° C. Physical stability, expressed as lag-time of fibril formation (in hours), was defined as the intersection between two linear regressions representing the initial stable phase and the growth phase.

[2] = Assessment of chemical stability (RP-HPLC normalized purity); type: physicochemical; settings: 7 days, 40° C., Table 1; for Normalized purity after 7 days, 40° C., pH 4: pH 4, 0.2 mg/ml; for Normalized purity after 7 days, 40° C., pH 7.5: pH 7.5, 0.2 mg/ml; for Normalized purity after 7 days, 40° C., pH 9: pH 9, 0.2 mg/ml
Method: Samples of each test peptide were dissolved in MilliQ™ water, and the pH of the solution was adjusted to pH 4, pH 6, pH 7.5 or pH 9, respectively, using either HCl or NaOH. The final peptide concentration was 0.2 mg/ml. Samples were placed in glass vials and incubated at 40° C. The samples were analyzed by RP-HPLC on a C8 column with gradient elution using an ammonium formate/water eluent system, or on a C18 column with gradient elution using a trifluoroacetic acid/water eluent system. The area-percentage (area-%) of the main peak after incubation time T=t (relative to time T=0) was determined by UV spectroscopy at 220 nm.
The purity was first determined as follows:
Purity(area-%)=(area of main peak/total area of all peaks)×100.
The purity was then normalized between time points by setting purity at time 0 (T=0) to 100 for each pH value for a given peptide, as follows:
Normalised area-% at time t (T=t)=[area-%(T=t)/area-%(T=0)]×100.
The normalized purity values in Table 1 were determined after 7 days of incubation.
The chemical stability assessment described in Example 6 was repeated for four pairs of compounds, each differing only by the presence or absence of an Asn-Asn (N—N) doublet at positions 21 and 22.

| Fibrillation pH 4.0 (Ac) [1] | Fibrillation pH 7.0 (His) [1] | Fibrillation pH 7.0 (Phos.) [1] | Normalized purity after 7 days, 40° C., pH 4 [2] | Normalized purity after 7 days, 40° C., pH 6 ([2]; pH 6, 0.2 mg/ml) | Normalized purity after 7 days, 40° C., pH 7.5 [2] | Normalized purity after 7 days, 40° C., pH 9 [2] | Structure (SMILES) |
| --- | --- | --- | --- | --- | --- | --- | --- |
| FND | FND | FND | A (A = >90%) | B (B = 70-90%) | A (A = >90%) | A (A = >90%) | CC[C@H](C)[C@@H](C(=O)N[C@@H](CC(C)C)C(=O)N[C@@H](CO)C(=O)N[C@@H](CO)C(=O)N[C@H](C(=O)N[C@@H](CCC(=O)O)C(=O)N[C@H](C(=O)NCC(=O)N[C@@H](CO)C(=O)N[C@@H](CC(N)=O)C(=O)N[C@H](C(=O)N1C[C@H](O)C[C@H]1C(N)=O)[C@@H](C)O)C(C)C)[C@@H](C)O)N(C)C(=O)[C@H](C)NC(=O)CN(C)C(=O)[C@H](Cc1ccccc1)NC(=O)[C@H](CO)NC(=O)[C@H](CO)NC(=O)[C@H](CCCNC(=N)N)NC(=O)[C@H](CCC(=O)O)NC(=O)[C@H](CC(C)C)NC(=O)[C@H](Cc1ccccc1)NC(=O)[C@H](Cc1c[nH]cn1)NC(=O)[C@H](C)NC(=O)[C@H](CC(C)C)NC(=O)[C@H](CCCNC(=N)N)NC(=O)[C@H](CCC(=O)O)NC(=O)[C@@H](NC(=O)[C@H](C)NC(=O)[C@@H]1CSSC[C@H](NC(=O)[C@H](CCCNC(=N)N)NC(=O)CC[C@H](NC(=O)CCCCCCCCCCCCCCCCCCC(=O)O)C(=O)O)C(=O)NCC(=O)N[C@@H]([C@@H](C)O)C(=O)N[C@@H](C)C(=O)N[C@@H]([C@@H](C)O)C(=O)N1)[C@@H](C)O [Compound 8, [19CD]-isoGlu-R-C( )-GTAT-C( )-ATERLAHFLERSSF-Gly(Me)-A-Ile(Me)-LSSTEVGSNT-Hyp-NH2] ({C20 diacid-γGlu}-RCGTATCATERLAHFLERSSF[Sar]A[NMeI]LSSTEVGSNT[Hyp]-NH2; disulfide 2-7) |
| FD | FD | FD | A (A = >90%) |  | B (B = 70-90%) | B (B = 70-90%) | CC[C@H](C)[C@@H](C(=O)N[C@@H](CC(C)C)C(=O)N[C@@H](CO)C(=O)N[C@@H](CO)C(=O)N[C@H](C(=O)N[C@@H](CCC(=O)O)C(=O)N[C@H](C(=O)NCC(=O)N[C@@H](CO)C(=O)N[C@@H](CCC(=O)O)C(=O)N[C@H](C(=O)N1CCC[C@H]1C(N)=O)[C@@H](C)O)C(C)C)[C@@H](C)O)N(C)C(=O)[C@H](C)NC(=O)CN(C)C(=O)[C@H](Cc1ccccc1)NC(=O)[C@H](CO)NC(=O)[C@H](CO)NC(=O)[C@H](CCCNC(=N)N)NC(=O)[C@H](Cc1c[nH]cn1)NC(=O)[C@H](CC(C)C)NC(=O)[C@H](Cc1ccccc1)NC(=O)[C@H](CC(N)=O)NC(=O)[C@H](C)NC(=O)[C@H](CC(C)C)NC(=O)[C@H](CCCNC(=N)N)NC(=O)[C@H](CCC(N)=O)NC(=O)[C@@H](NC(=O)[C@H](C)NC(=O)[C@@H]1CSSC[C@H](NC(=O)[C@H](CCCNC(=N)N)NC(=O)CC[C@H](NC(=O)CCCCCCCCCCCCCCCCCCC(=O)O)C(=O)O)C(=O)N[C@@H](CC(N)=O)C(=O)N[C@@H]([C@@H](C)O)C(=O)N[C@@H](C)C(=O)N[C@@H]([C@@H](C)O)C(=O)N1)[C@@H](C)O [Compound 3, [19CD]-isoGlu-R-C( )-NTAT-C( )-ATQRLANFLHRSSF-Gly(Me)-A-Ile(Me)-LSSTEVGSETP-NH2] ({C20 diacid-γGlu}-RCNTATCATQRLANFLHRSSF[Sar]A[NMeI]LSSTEVGSETP-NH2; disulfide 2-7) |
